This is an account of results in PubChem BioAssay (NCI).

Test systems include MALME-3M melanoma; UACC-62 melanoma; SK-MEL-5 melanoma; UO-31 renal; MCF7 breast; SF-539 CNS; EKVX NSCLC; HL-60(TB) leukemia; RPMI-8226 leukemia; MDA-MB-231 breast.
Common to all, as to assay: inhibition of tumour cell growth, NCI panel, 48 h

Molecules are shown by their SMILES.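 Compound exposure: 48 hours, 5 concentrations, 96-well plates. GI50: concentration for 50% inhibition of growth. At the TGI there is no net growth.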

As to `COc1ccc(-c2c(NC(=O)Nc3ccc(Cl)c(C(F)(F)F)c3)cnn2-c2ccc(S(N)(=O)=O)cc2)cc1`, the GI50 in the assay on MALME-3M melanoma was 2.51 µM; with UACC-62 melanoma, 2.07 µM; in the assay on SK-MEL-5 melanoma, 1.9 µM; in the assay on UO-31 renal, 3.39 µM; in the assay on MCF7 breast, 2.67 µM; with SF-539 CNS, 3.06 µM. Further, the GI50 in the assay with EKVX NSCLC is 3.77 µM; in the assay on HL-60(TB) leukemia, 2.27 µM; in the assay on RPMI-8226 leukemia, 3.14 µM; in the assay with MDA-MB-231 breast it was 2.04 µM. Besides, the TGI in the assay with MALME-3M melanoma worked out at 7.72 µM; in the assay on UACC-62 melanoma it was 4.47 µM; with SK-MEL-5 melanoma it was 3.85 µM; with UO-31 renal, 15.1 µM; with MCF7 breast, 9.22 µM; with SF-539 CNS, 9.9 µM. In addition, the TGI with EKVX NSCLC amounted to 16.4 µM; with HL-60(TB) leukemia, 5.67 µM; with RPMI-8226 leukemia it was 13.5 µM; with MDA-MB-231 breast, 4.72 µM.
On to `O=C1/C(=C/c2ccc(Cl)cc2)N=C(c2ccccc2)N1c1cc(C(F)(F)F)ccc1Cl`, for which the GI50 in the assay with MALME-3M melanoma is 27.7 µM; with UACC-62 melanoma it was 14 µM; in the assay on SK-MEL-5 melanoma, 16 µM; with UO-31 renal it was 19.4 µM; with MCF7 breast, 17.6 µM; in the assay on SF-539 CNS, 18.1 µM. For the same molecule, the GI50 with EKVX NSCLC is 21.9 µM; in the assay on HL-60(TB) leukemia, 16.9 µM; with RPMI-8226 leukemia, 21.5 µM; in the assay on MDA-MB-231 breast, 16 µM. For the same molecule, the TGI in the assay with MALME-3M melanoma was 86.5 µM; in the assay with UACC-62 melanoma, 44.9 µM; with SK-MEL-5 melanoma, 29.5 µM; in the assay with UO-31 renal it was over 100 µM; in the assay on MCF7 breast it was 57.9 µM; with SF-539 CNS, 44.3 µM. Further, the TGI is over 100 µM with EKVX NSCLC, 42.7 µM in the assay on HL-60(TB) leukemia, 52.1 µM in the assay on RPMI-8226 leukemia and 55.8 µM in the assay on MDA-MB-231 breast.
Regarding `Cc1ccc(NC(=O)CCc2nnc3s/c(=C\C=C\c4ccccc4)c(=O)n23)cc1`, the TGI in the assay with MALME-3M melanoma, in the assay with UACC-62 melanoma, with SK-MEL-5 melanoma, in the assay with UO-31 renal, in the assay on MCF7 breast and with SF-539 CNS was over 100 µM throughout. Also, the TGI in the assay with EKVX NSCLC is over 100 µM; in the assay on HL-60(TB) leukemia, over 79.7 µM; in the assay with RPMI-8226 leukemia, over 82.1 µM; in the assay with MDA-MB-231 breast, over 100 µM.
Consider `Oc1c(CN2CCCCC2)ccc2cccnc12`, for which the GI50 in the assay with MALME-3M melanoma is 7.18 µM; in the assay on UACC-62 melanoma, 3.95 µM; in the assay with SK-MEL-5 melanoma, 3.56 µM; with UO-31 renal, 0.566 µM; in the assay with MCF7 breast, 3.38 µM; in the assay with SF-539 CNS, 4.89 µM. Moreover, the GI50 in the assay with EKVX NSCLC was 3.26 µM; in the assay with HL-60(TB) leukemia, 3.34 µM; in the assay on RPMI-8226 leukemia it was 3.71 µM; in the assay with MDA-MB-231 breast, 4.79 µM. The TGI with MALME-3M melanoma came to 52.5 µM; in the assay on UACC-62 melanoma, 51.4 µM; in the assay with SK-MEL-5 melanoma it was 42.6 µM; in the assay on UO-31 renal, 5.42 µM; in the assay with MCF7 breast, 14.8 µM; in the assay on SF-539 CNS it was 39.5 µM. In addition, the TGI in the assay on EKVX NSCLC is 37.4 µM; with HL-60(TB) leukemia, 12.8 µM; in the assay on RPMI-8226 leukemia, 31 µM; in the assay on MDA-MB-231 breast, over 100 µM.
For `Cn1cc(-c2ncnc3ccc(-c4cnc(Cl)c(NS(C)(=O)=O)c4)cc23)c2ccccc21`, the GI50 with MALME-3M melanoma was 0.227 µM; in the assay on UACC-62 melanoma, 0.181 µM; in the assay on SK-MEL-5 melanoma, 1.2 µM; with UO-31 renal, 0.164 µM; in the assay on MCF7 breast, 0.205 µM; in the assay with SF-539 CNS, 0.656 µM. Also, the GI50 with EKVX NSCLC was 0.598 µM; in the assay on HL-60(TB) leukemia it was 0.538 µM; in the assay on RPMI-8226 leukemia, 0.419 µM; in the assay on MDA-MB-231 breast, 1.84 µM. Further, the TGI in the assay with MALME-3M melanoma was 2.48 µM; with UACC-62 melanoma, 1.95 µM; in the assay with SK-MEL-5 melanoma, 3.07 µM; with UO-31 renal, 5 µM; in the assay with MCF7 breast, over 100 µM; with SF-539 CNS it was 4.3 µM. The TGI with HL-60(TB) leukemia was over 27.8 µM; in the assay on RPMI-8226 leukemia it was 4.17 µM; in the assay with MDA-MB-231 breast, 26.4 µM.
Regarding `O=C1NN(C(=O)c2ccccc2)C(c2ccc(Cl)c(Cl)c2)=C/C1=C\c1ccccc1[N+](=O)[O-]`, the GI50 with MALME-3M melanoma was 4.53 µM; in the assay with UACC-62 melanoma it was 1.44 µM; in the assay with SK-MEL-5 melanoma, 1.17 µM; in the assay with UO-31 renal, 0.735 µM; in the assay on MCF7 breast, 1.82 µM; with SF-539 CNS it was 2.47 µM. Besides, the GI50 in the assay on EKVX NSCLC was 2.81 µM; with HL-60(TB) leukemia, 2.01 µM; in the assay on RPMI-8226 leukemia, 1.77 µM; in the assay on MDA-MB-231 breast, over 6.75 µM. Moreover, the TGI in the assay on MALME-3M melanoma was over 6.75 µM; with UACC-62 melanoma, over 6.75 µM; in the assay on SK-MEL-5 melanoma it was 2.19 µM; in the assay with UO-31 renal it was 6.7 µM; with MCF7 breast it was over 6.75 µM; in the assay on SF-539 CNS, over 6.75 µM. Besides, the TGI in the assay with EKVX NSCLC, in the assay on HL-60(TB) leukemia, in the assay on RPMI-8226 leukemia and with MDA-MB-231 breast was over 6.75 µM each time.
